# Experimental data: patent US10881649B2, “Therapeutic agent or preventive agent for alopecia areata” (Toray Industries, Inc., priority 2017, dated 2021)
# What was measured:
# [1] = system: mouse alopecia areata model; assay: Symptom-suppressing effect on a mouse alopecia areata model (preventive protocol); type: in vivo, C3H/HeJ mice; settings: for hair loss score (mean±standard error): Day 63, 10 mg/kg orally once daily Day 0 to Day 62, n=10, vehicle group 3.2±1.13; for range of hair loss (FIG. 1): abdomen on Day 63, compared with the disease group (vehicle treatment group), 10 mg/kg orally once daily
# Procedure: The effect of cyclic amine derivative (I) or a pharmacologically acceptable salt thereof in a mouse alopecia areata model was evaluated using increase in the hair loss score as an index of worsening of symptoms. The mouse alopecia areata model was prepared by partially modifying the method by Wang et al. (Journal of Investigative Dermatology, 2015, Vol. 135, p. 2530-2532).
# (§1) Female C3H/HeJ mice (CLEA Japan, Inc.) with spontaneous hair loss in 70% or more of the body surface were used as donor mice. The donor mice were euthanized by cervical dislocation, and then the inguinal, axilla, and auricular lymph nodes were aseptically removed. The lymph nodes were filtered through a 70 μm cell strainer to isolate lymphocytes. The lymphocytes were washed with Advanced RPMI media (containing 10% fetal bovine serum, 2 mM Gluta Max, and 100 U/mL penicillin streptomycin), and then suspended in Advanced RPMI media to which Human rIL-2 (Roche; final concentration of 30 U/mL), Mouse rIL-7 (R&D systems, Inc.; final concentration of 25 ng/mL), and Mouse rIL-15 (R&D systems, Inc.; final concentration of 50 ng/mL) were added so that the concentration was 2×10^6 cells/mL. The lymphocytes were seeded in 1 mL portions on 24-well plates, and 500 μL of Dynabead mouse T-activator CD3/CD28 (Life Technologies) was added, followed by culture in a CO2 incubator. Culture was performed for 6 days so that the cell density was 1.5 to 2.0×10^6 cells/mL during culture.
# The day of transplantation of lymphocytes derived from donor mice was regarded as Day 0. Two days before the day of transplantation (Day −2), hair on the back, which would be a transplantation site, of 10-week old female C3H/HeJ mice without hair loss (CLEA Japan, Inc.) was removed with an electric hair clipper under isoflurane anesthesia (1.5 cm×1.5 cm). Furthermore, grouping was performed using the body weight on Day −1 as an index.
# On Day 0, lymphocytes in which beads were removed with EasySep magnet (Stemcell Technologies Inc.) were collected into new tubes. The collected lymphocytes were suspended in PBS(−) so that the concentration was 10×10^7 cells/mL, filled in a 1 mL syringe with a 26G injection needle, and stored on ice until transplantation. Under isoflurane anesthesia, the filled lymphocyte suspension was intradermally injected into the hair removal site in 100 μL/body portions. […]
# On Day 63, photographs of the back and the abdomen of the mice were taken under isoflurane anesthesia. The status of hair loss was evaluated by partially modifying the method by Alli et al. (Journal of Immunology, 2012, Vol. 188, p. 477-486). In other words, the ratio of the area of hair loss site to the body surface area was scored in accordance with the criteria mentioned in Table 4, and defined as the hair loss score. […]
# [2] = system: mouse alopecia areata model; assay: Symptom-suppressing effect on a mouse alopecia areata model (therapeutic protocol); type: in vivo, C3H/HeJ mice; settings: Day 91; 10 mg/kg orally once daily Day 49 to Day 90; n=6; vehicle group 9.2±0.83; Day 49 mean 3.6±0.66
# Procedure: The effect of cyclic amine derivative (I) or a pharmacologically acceptable salt thereof in a mouse alopecia areata model was evaluated using increase in the hair loss score as an index of worsening of symptoms. The mouse alopecia areata model was prepared using the same method as in Example 73.
# as §1, with “In other words, female” for “Female”, “The lymphocytes were seeded in 1 mL portions on 24-well plates, and 500 μL of Dynabead mouse T-activator CD3/CD28 (Life Technologies) was added, followed by culture in a CO2 incubator. Culture was performed for 6 days so that the cell density was 1.5 to 2.0×10^6 cells/mL during culture.” left out
# On Day 49, grouping was performed using the mouse hair loss score calculated in the same manner as in Example 73 as an index (the hair loss score on Day 49 (mean±standard error): 3.6±0.66). […]
# On Day 91, the mouse hair loss score was calculated in the same manner as in Example 73. […]
Structure (SMILES),hair loss score (mean±standard error) [1],range of hair loss (FIG. 1) [1],hair loss score (mean±standard error) [2]
"CN(CC(=O)N1CCCC[C@@H]1C(=O)Nc1ccc(-c2ccccc2OC(F)(F)F)c(Cl)c1)S(C)(=O)=O [Compound of Example 29, (R)—N-(2-chloro-2′-(trifluoromethoxy)-[1,1′-biphenyl]-4-yl)-1-(2-(N-methylmethylsulfonamide)acetyl)piperidine-2-carboxamide]",1.3±0.67,very smaller,4.3±1.41
"O=C(Nc1ccc(-c2ccccc2OC(F)(F)F)c(Cl)c1)[C@H]1CCCCN1C(=O)Cn1cnnn1 [Compound of Example 57, (R)-1-(2-(1H-tetrazol-1-yl)acetyl)-N-(2-chloro-2′-(trifluoromethoxy)-[1,1′-biphenyl]-4-yl)piperidine-2-carboxamide]",1.8±0.88,very smaller,5.5±1.43
